Measured values reported in ChEMBL document CHEMBL4765331, “Amides of pyrrole- and thiophene-fused anthraquinone derivatives: A role of the heterocyclic core in antitumor properties” (Eur J Med Chem, 2020).
The source made the active and inactive calls. No cut-off for these calls is given here.

Legend:
CAPAN-1 = experiment: Antiproliferative activity against human CAPAN-1 cells assessed as inhibition of cell proliferation measured after 72 hrs by MTT assay; assay type: functional, cell-based; details: CAPAN-1, 72 h
HCT-116 = experiment: Antiproliferative activity against human HCT-116 cells assessed as inhibition of cell proliferation measured after 72 hrs by MTT assay; assay type: functional, cell-based; details: HCT-116, 72 h
TERT-RPE1 = experiment: Cytotoxicity against human TERT-RPE1 cells assessed as inhibition of cell proliferation measured after 72 hrs by MTT assay; assay type: cell-based; details: RPE-1, 72 h
[1] = Resistance index, ratio of IC50 for human P-gp-positive/Doxorubicin-resistant K562/4 cells to IC50 for human K562 cells; assay type: functional
Calf thymus DNA [2] = experiment: Binding affinity to calf thymus DNA assessed as DNA intercalation by measuring decrease of negative DNA band at 245 nm at 50 uM by circular dichroism spectral analysis; assay type: tissue-based; details: Bos taurus
Calf thymus DNA [3] = experiment: Binding affinity to calf thymus DNA assessed as stoichiometry ratio of compound-DNA complex formation by scatchard plot analysis; details: Bos taurus
[4] = Drug uptake in mouse NIH3T3 cells assessed as compound localization in nucleus at 1 uM measured after 15 mins by laser scanning microscope; assay type: ADME, subcellular; details: nih3t3, 0.25 h
K562 [5] = experiment: Induction of apoptosis in human K562 cells assessed as viable cells at 1.6 uM measured after 48 hrs by Annexin V-APC/PI staining based flow cytometry assay (reference value: 85.9%); assay type: functional; details: read-out: Activity
K562 [6] = experiment: Induction of apoptosis in human K562 cells assessed as late apoptotic cells at 1.6 uM measured after 48 hrs by Annexin V-APC/PI staining based flow cytometry assay (reference value: […]); assay type: functional
P388 [7] = experiment: Antitumour activity against mouse P388 cells xenografted intraperitoneally in BDF1 mouse assessed as […] T/C ratio at 20 mg/kg, ip administered qd for 5 days (reference value: 100%); assay type: functional; details: dose 20 mg/kg/day; time 5 day
P388 [8] = experiment: Antitumour activity against mouse P388 cells xenografted subcutaneously in BDF1 mouse assessed as inhibition of tumour growth at 60 mg/kg, ip administered qd for 5 days starting from day 1 of tumor cell inoculation and measured at day 18 post-tumor cell inoculation; assay type: functional; details: P388, 432 h, time 18 day, read-out: TGI
[9] = Selectivity index, ratio of IC50 for human TERT-RPE1 cells to IC50 for human HCT-116 cells; assay type: toxicity; details: TERT-RPE1 cells and HCT-116 cells, read-out: Ratio IC50
[10] = Selectivity index, ratio of IC50 for human TERT-RPE1 cells to IC50 for human NCI-H460 cells; assay type: toxicity; details: TERT-RPE1 cells and NCI-H460 cells, read-out: Ratio IC50
[11] = Selectivity index, ratio of IC50 for human TERT-RPE1 cells to IC50 for human K562 cells; assay type: toxicity; details: TERT-RPE1 cells and K562 cells, read-out: Ratio IC50
[12] = Drug uptake in P-gp-positive/doxorubicin-resistant human K562/4 cells; assay type: ADME
[13] = Drug uptake in human K562i/S9 cells harboring exogenously expressed MDR1/Pgp; assay type: ADME, cell-based
P388 [14] = experiment: Antitumour activity against mouse P388 cells xenografted subcutaneously in ip dosed BDF1 mouse assessed as inhibition of tumour growth administered qd for 5 days starting from day 1 of tumor cell inoculation and measured at day 14 to 18 post-tumor cell inoculation; assay type: functional, organism-based; details: dose 20-60 mg/kg, time 14-18 day

Work on Cc1[nH]c2c(O)c3c(c(O)c2c1C(=O)N1CC[C@H](N)C1)C(=O)c1ccccc1C3=O yielded an IC50 (CAPAN-1) of 500 nM, an IC50 (HCT-116) of 900 nM and an IC50 (TERT-RPE1) of 15800 nM. The “Ratio IC50” value [1] was 26.5, the Activity (Calf thymus DNA [2]) was “Active” and the Ratio (Calf thymus DNA [3]) was 4.6. For the same compound, the Drug uptake [4] was “Active”, the viability at 1.6 µM (K562 [5]) was 56.6% and the Activity (K562 [6]) was 7.5%. The T/C (P388 [7]) was 153%, the inhibition in vivo at 60 mg/kg (P388 [8]) was 79% and the selectivity ratio [9] was 18. For the same compound, the selectivity ratio [10] was 18, the selectivity ratio [11] was 18 and the Drug uptake [12] was “Active”. For the same compound, the Drug uptake [13] was “Active” and the Activity (P388 [14]) was “Dose-dependent effect”.
